Experimental data: article PMC8395040 (International Journal of Molecular Sciences, 2021)

Columns and labels:
pancreatic cancer cells = system: pancreatic cancer cells; set-up: method as in PMID 28490735; conditions: cited from earlier work
HT29 = test: Colony formation assay, HT29; format: cell-based, human; conditions: 5 µM, 14 d
Method: HT29, HCT116, H1975 and HEK293 cells were seeded in a 6-well plate (1 × 10^4 cells per well) and incubated overnight in DMEM F12 supplemented with 10% FBS. […] After 72 h, the medium was replaced by fresh medium without stimuli, and cells were incubated for an additional 14 d to permit colony formation. The cells were fixed during 30 min with PFA 4% (v/v), washed and stained for 30 min at RT with a 5% solution of violet crystal for final colony counting. Three independent replicates were performed.

[1] = system: Gli1 mRNA in WT MEFs stimulated with SAG; test: Gli1 mRNA (qRT-PCR) in SAG-stimulated WT MEFs; format: cell-based, mouse; conditions: 10 µM, SAG 200 nM, 24 h
[2] = system: Gli1 mRNA in Ptch1−/− mouse embryonic fibroblasts; test: Gli1 mRNA (qRT-PCR) in Ptch1−/− MEFs; format: cell-based; conditions: increasing concentrations, 24 h
Method: HEK293T and Smo^−/−, Ptch^−/− MEFs cells were cultured in DMEM plus 10% FBS, 1% L-glutamine and antibiotics. Transient transfections were performed using DreamFectTM Gold transfection reagent (Oz Biosciences SAS, Marseille, France) following the manufacturer’s instructions and for varying periods of time depending on the experiment (24–72 h). […] Vehicle (DMSO) was used as control.
Total RNA was isolated with Trizol (Invitrogen/Life Technologies, Carlsbad, CA, USA) from Smo^−/− MEFs, Ptch^−/− MEFs or HT29 cells treated for 24 h and/or 48 h with 4s at different concentrations and reverse transcribed with the SensiFAST cDNA Synthesis Kit (Bioline Reagents Limited, London, UK). Quantitative real-time PCR (Q-PCR) analysis of Gli1 and housekeeping (HPRT, TBP, HMBS) mRNA levels was performed on each cDNA sample using the VIIA7 Real Time PCR System employing Assay-on-Demand Reagents (Life Technologies) as previously described. […] Each amplification reaction was performed in triplicate, the average of the three threshold cycles was used to calculate the amount of transcript in the sample (using SDS version 2.3 Software). mRNA quantification was expressed in arbitrary units as the ratio of the sample quantity to the quantity of the calibrator (ΔCt method). […]

[3] = system: cancer cell lines (HH-dependent and HH-independent); test: Annexin V-FITC/PI dose-response, cancer cell lines; format: cell-based, human; conditions: 1.5–50 µM, 72 h
Method: Apoptosis plays a major role in maintaining the homeostasis of cells. Cellular shrinkage and DNA fragmentation at the molecular level are characteristics acquired during apoptosis. Therefore, we performed flow cytometric analysis to determine if 4s could induce apoptosis in tumour cell lines. To this end, 4s-treated cells were stained with Annexin V-FITC and/or PI and analysed by flow cytometry. Dose–response effects were assessed using 4s at concentrations under 50 µM (1.5, 3.0, 6.25, 19, 25 and 50 µM) for 72 h.
Supplemental Figure S1: 4s triggers apoptosis in various cancer cell lines. A)
Dose-response curves are shown for four neoplastic cancer cell lines and HEK293 cells as a control. Cells were treated with 4s […]
stained with annexin V-FITC and propidium iodide (PI) and analyzed by flow cytometry.
Results are presented as the mean ± SD of three independent experiments. (***) p <
0.0001 vs. control. Data were analyzed with a non-parametric t-test. B) Representative dot plot of HT29 cells untreated (control) or treated for 3 h with 4s (19 µM ). […]

HEK293 = test: Cell cycle analysis (PI, flow cytometry), HEK293; format: cell-based, human; conditions: 19 µM, 24 h
Method: HT29 and HEK293 cells were plated in 6-well plates at a density of 2.0 × 10^5 cells/1.5 mL/well and grown overnight at 37 °C in a 5% CO2 humidified atmosphere. […] Aliquots of cells were collected, pelleted, washed, and fixed with ethanol (70% v/v) for at least 30 min at 4 °C. Cells were resuspended twice in PBS and, after centrifugation and elimination of the supernatant, they were finally resuspended in a PBS solution containing propidium iodide (PI; […], Invitrogen), RNase A ([…], Invitrogen). After a final incubation for 1 h in the dark at 37 °C, the PI signal was measured using a FACS Canto II Flow-cytometer (BD; Mountain View, CA) with a 488 nm excitation laser, captured and FACS DIVA was used as the acquisition software. The percentage of cells in each phase was analysed using the FCS Express v6 software. Two independent biological replicates were performed.

Solubility in water = format: physicochemical

Structure (SMILES)	concentration inducing apoptosis in pancreatic cancer cells (pancreatic cancer cells)	colony formation HT-29 (HT29)	Gli-1 expression in WT MEF cells stimulated with SAG [1]	GLI1 mRNA levels in Ptch1−/− MEFs [2]	induction of apoptosis [3]	changes in cell cycle, HEK293 (HEK293)	solubility in water (Solubility in water)
CS(=O)(=O)c1ccc(C(=O)Nc2ccc(Cl)c(-c3ccccn3)c2)c(Cl)c1 [Vismodegib, reference compound]	greater than 100 µM	less effective than 4s	–	–	–	–	–
CCCCCCn1cnc2c(-c3ccc(OC(F)(F)F)cc3)nc(N3CCN(c4ccncc4)CC3)nc21 [Compound 4s, 9-Hexyl-2-(4-(pyridin-4-yl)piperazin-1-yl)-6-(4-(trifluoromethoxy)phenyl)-9H-purine]	–	–	inhibited Gli-1 expression	significantly reduced mRNA levels of GLI1	induced apoptosis in a dose-dependent manner	did not observe any changes	poor
